Assay results from ChEMBL document CHEMBL6096689, “Structure-Guided Development of ClpP Agonists with Potent Therapeutic Activities against Staphylococcus aureus Infection” (J Med Chem, 2025).
Values after ≈ are worked out from the molar mass of the structure shown. One block for each compound: values may come before it.

What was measured:
[1] = biological target: T1, ATP-dependent Clp protease proteolytic subunit (Staphylococcus aureus (strain NCTC 8325), UniProt Q2G036); test: Agonist activity at Staphylococcus aureus ClpP extracted from Escherichia coli BL21 (DE3) cells using alpha-casein as substrate assessed as substrate hydrolysis preincubated for 15 mins followed by substrate addition and measured after 2 hrs by SDS-PAGE analysis
T1 sequence (Q2G036 whole entry): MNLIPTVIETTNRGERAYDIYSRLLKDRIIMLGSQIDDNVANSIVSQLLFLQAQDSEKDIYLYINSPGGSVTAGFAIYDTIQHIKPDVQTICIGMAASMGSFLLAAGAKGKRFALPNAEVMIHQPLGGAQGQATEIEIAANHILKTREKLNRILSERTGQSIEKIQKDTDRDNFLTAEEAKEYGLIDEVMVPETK

[2] = test system: Staphylococcus aureus; test: microbe, parasite or virus in culture; format: functional; details: Newman, time 18 hrs
Description: Antibacterial activity against Staphylococcus aureus Newman assessed as inhibition of visible growth of bacteria incubated for 18 hrs by absorbance based analysis

[3] = test system: Staphylococcus aureus; test: microbe, parasite or virus in culture; format: functional; details: time 18 hrs
Description: Antibacterial activity against multidrug-resistant Staphylococcus aureus clinical isolate XJ009 assessed as inhibition of visible growth of bacteria incubated for 18 hrs by absorbance based analysis

[4] = test system: Staphylococcus aureus; test: microbe, parasite or virus in culture; format: functional; details: time 18 hrs; remark: listed apart in the source
Description: Antibacterial activity against multidrug-resistant Staphylococcus aureus clinical isolate XJ049 assessed as inhibition of visible growth of bacteria incubated for 18 hrs by absorbance based analysis

[5] = test system: Staphylococcus aureus; test: microbe, parasite or virus in culture; format: functional; details: NRS-271, time 18 hrs
Description: Antibacterial activity against methicillin-resistant Staphylococcus aureus NRS-271 assessed as inhibition of visible growth of bacteria incubated for 18 hrs by absorbance based analysis

[6] = test system: Staphylococcus aureus; test: microbe, parasite or virus in culture; format: functional; details: NRS-108, time 18 hrs
Description: Antibacterial activity against methicillin-resistant Staphylococcus aureus NRS-108 assessed as inhibition of visible growth of bacteria incubated for 18 hrs by absorbance based analysis

[7] = test system: Staphylococcus aureus; test: microbe, parasite or virus in culture; format: functional; details: USA300, time 18 hrs
Description: Antibacterial activity against methicillin-resistant Staphylococcus aureus USA300 assessed as inhibition of visible growth of bacteria incubated for 18 hrs by absorbance based analysis

[8] = test system: Staphylococcus aureus; test: microbe, parasite or virus in culture; format: functional; details: time 18 hrs; remark: listed apart in the source
Description: Antibacterial activity against multidrug-resistant Staphylococcus aureus clinical isolate XJ025 assessed as inhibition of visible growth of bacteria incubated for 18 hrs by absorbance based analysis

[9] = test system: Staphylococcus aureus; test: microbe, parasite or virus in culture; format: functional; details: time 18 hrs; remark: listed apart in the source
Description: Antibacterial activity against multidrug-resistant Staphylococcus aureus clinical isolate XJ052 assessed as inhibition of visible growth of bacteria incubated for 18 hrs by absorbance based analysis

[10] = test system: Staphylococcus aureus; test: microbe, parasite or virus in culture; format: functional; details: NRS-70, time 18 hrs
Description: Antibacterial activity against methicillin-resistant Staphylococcus aureus NRS-70 assessed as inhibition of visible growth of bacteria incubated for 18 hrs by absorbance based analysis

[11] = test system: Staphylococcus aureus; test: microbe, parasite or virus in culture; format: functional; details: time 18 hrs; remark: listed apart in the source
Description: Antibacterial activity against multidrug-resistant Staphylococcus aureus clinical isolate XJ051 assessed as inhibition of visible growth of bacteria incubated for 18 hrs by absorbance based analysis

[12] = test system: Staphylococcus aureus; test: microbe, parasite or virus in culture; format: functional; details: NRS-1, time 18 hrs
Description: Antibacterial activity against methicillin-resistant Staphylococcus aureus NRS-1 assessed as inhibition of visible growth of bacteria incubated for 18 hrs by absorbance based analysis

Compound: O=C1[C@H](CO)N2C(=O)CCN(C(=O)NCc3ccccc3)[C@H]2CN1Cc1cccc2ccccc12
EC50 [1]: 4.5 µM
MIC [2]: 64 µg/mL (≈ 135 µM)

Compound: O=C1[C@H](CC2CCCC2)N2C(=O)CCN(C(=O)NCCCC(F)(F)F)[C@H]2CN1Cc1cccc2ccccc12
EC50 [1]: 2.2 µM
MIC [2]: 4 µg/mL (≈ 7.34 µM)

Compound: CC[C@@H](C)[C@H]1C(=O)N(Cc2cccc3ccccc23)C[C@@H]2N(C(=O)NCc3ccc(Br)cc3)CCC(=O)N12
EC50 [1]: 1.2 µM
MIC [2]: 4 µg/mL (≈ 6.93 µM)

Compound: CC[C@H]1OC(=O)[C@H](C)[C@@H](O[C@H]2C[C@@](C)(OC)[C@@H](O)[C@H](C)O2)[C@H](C)[C@@H](O[C@@H]2O[C@H](C)C[C@H](N(C)C)[C@H]2O)[C@](C)(O)C[C@@H](C)C(=O)[C@H](C)[C@@H](O)[C@]1(C)O [ERYTHROMYCIN]
MIC [3]: > 128 µg/mL
MIC [4]: > 128 µg/mL
MIC [5]: 0.25 µg/mL (≈ 0.341 µM)
MIC [6]: > 128 µg/mL
MIC [7]: 8 µg/mL (≈ 10.9 µM)
MIC [8]: 1 µg/mL (≈ 1.36 µM)
MIC [2]: 0.13 µg/mL (≈ 0.177 µM)
MIC [9]: > 128 µg/mL
MIC [10]: > 128 µg/mL
MIC [11]: 8 µg/mL (≈ 10.9 µM)
MIC [12]: > 128 µg/mL

Compound: NC[C@H]1O[C@H](O[C@H]2[C@H](O)[C@@H](O[C@H]3O[C@H](CO)[C@@H](O)[C@H](N)[C@H]3O)[C@H](N)C[C@@H]2N)[C@H](O)[C@@H](O)[C@@H]1O [KANAMYCIN]
MIC [3]: > 128 µg/mL
MIC [4]: > 128 µg/mL
MIC [5]: 2 µg/mL (≈ 4.13 µM)
MIC [6]: 64 µg/mL (≈ 132 µM)
MIC [7]: > 128 µg/mL
MIC [8]: > 128 µg/mL
MIC [2]: 4 µg/mL (≈ 8.26 µM)
MIC [9]: > 128 µg/mL
MIC [10]: 64 µg/mL (≈ 132 µM)
MIC [11]: > 128 µg/mL
MIC [12]: > 128 µg/mL

Compound: CC[C@H](C)[C@H]1C(=O)N(Cc2cccc3ccccc23)C[C@@H]2N(C(=O)NCCC(C)=O)CCC(=O)N12
EC50 [1]: 26.1 µM
MIC [2]: > 128 µg/mL

Compound: CC[C@H](C)[C@H]1C(=O)N(Cc2cccc3ccccc23)C[C@@H]2N(C(=O)NCCC(=O)OC)CCC(=O)N12
EC50 [1]: 17.3 µM
MIC [2]: 128 µg/mL (≈ 259 µM)

Compound: O=C1[C@H](CC2CC2)N2C(=O)CCN(C(=O)NCCCC(F)(F)F)[C@H]2CN1Cc1cccc2ccccc12
EC50 [1]: 3.5 µM
MIC [2]: 4 µg/mL (≈ 7.74 µM)

Compound: [N-]=[N+]=NCCC[C@H]1C(=O)N(Cc2cccc3ccccc23)C[C@@H]2N(C(=O)NCCCC(F)(F)F)CCC(=O)N21
EC50 [1]: 1.5 µM
MIC [2]: 2 µg/mL (≈ 3.67 µM)

Compound: C#CC[C@H]1C(=O)N(Cc2cccc3ccccc23)C[C@@H]2N(C(=O)NCCCC(F)(F)F)CCC(=O)N21
EC50 [1]: 1.9 µM
MIC [2]: 4 µg/mL (≈ 7.99 µM)

Compound: O=C1[C@H](CC2CCC2)N2C(=O)CCN(C(=O)NCCCC(F)(F)F)[C@H]2CN1Cc1cccc2ccccc12
EC50 [1]: 2 µM
MIC [2]: 4 µg/mL (≈ 7.54 µM)

Compound: CC[C@H](C)[C@H]1C(=O)N(Cc2cccc3ccccc23)C[C@@H]2N(C(=O)NCCCC(F)(F)F)CCC(=O)N12
EC50 [1]: 0.72 µM
MIC [2]: 1 µg/mL (≈ 1.93 µM)

Compound: O=C1[C@H](Cc2ccccc2)N2C(=O)CCN(C(=O)NCc3ccccc3)[C@H]2CN1Cc1cccc2ccccc12
EC50 [1]: 2.9 µM
MIC [2]: 8 µg/mL (≈ 15 µM)

Compound: CC(C)C[C@H]1C(=O)N(Cc2cccc3ccccc23)C[C@@H]2N(C(=O)NCCCC(F)(F)F)CCC(=O)N21
EC50 [1]: 1.3 µM
MIC [2]: 4 µg/mL (≈ 7.71 µM)

Compound: CCC(C)CNC(=O)N1CCC(=O)N2[C@@H]([C@@H](C)CC)C(=O)N(Cc3cccc4ccccc34)C[C@H]12 (stereo partly drawn)
EC50 [1]: 1.8 µM
MIC [2]: 2 µg/mL (≈ 4.18 µM)

Compound: CC[C@H](C)[C@H]1C(=O)N(Cc2cccc3ccccc23)C[C@@H]2N(C(=O)NCc3ccccc3)CCC(=O)N12
EC50 [1]: 0.9 µM
MIC [2]: 4 µg/mL (≈ 8.02 µM)

Compound: C=CC[C@H]1C(=O)N(Cc2cccc3ccccc23)C[C@@H]2N(C(=O)NCCCC(F)(F)F)CCC(=O)N21
EC50 [1]: 1.4 µM
MIC [2]: 4 µg/mL (≈ 7.96 µM)

Compound: CC1(C)S[C@@H]2[C@H](NC(=O)[C@H](N)c3ccccc3)C(=O)N2[C@H]1C(=O)O [AMPICILLIN]
MIC [3]: 64 µg/mL (≈ 183 µM)
MIC [4]: 64 µg/mL (≈ 183 µM)
MIC [5]: 32 µg/mL (≈ 91.6 µM)
MIC [6]: 4 µg/mL (≈ 11.4 µM)
MIC [8]: 64 µg/mL (≈ 183 µM)
MIC [2]: 0.25 µg/mL (≈ 0.715 µM)
MIC [9]: 64 µg/mL (≈ 183 µM)
MIC [10]: 4 µg/mL (≈ 11.4 µM)
MIC [11]: 128 µg/mL (≈ 366 µM)
MIC [12]: 32 µg/mL (≈ 91.6 µM)

Compound: CC[C@H](C)[C@H]1C(=O)N(Cc2cccc3ccccc23)C[C@@H]2N(C(=O)NCCC3CCOC3)CCC(=O)N12 (stereo partly drawn)
EC50 [1]: 6.9 µM
MIC [2]: 128 µg/mL (≈ 253 µM)

Compound: CC[C@H](C)[C@H]1C(=O)N(Cc2cccc3ccccc23)C[C@@H]2N(C(=O)NCC(C)(C)C)CCC(=O)N12
EC50 [1]: 4.9 µM
MIC [2]: 32 µg/mL (≈ 66.9 µM)

Other lines, results leading:

EC50 [1]: 1.01 µM
MIC [2]: 0.5 µg/mL (≈ 0.932 µM)
Compound: CC[C@H](C)[C@H]1C(=O)N(Cc2ccc(F)c3ccccc23)C[C@@H]2N(C(=O)NCCCC(F)(F)F)CCC(=O)N12

EC50 [1]: 3.8 µM
MIC [2]: 8 µg/mL (≈ 17.2 µM)
Compound: CC[C@H](C)[C@H]1C(=O)N(Cc2cccc3ccccc23)C[C@@H]2N(C(=O)NCC(C)C)CCC(=O)N12

EC50 [1]: 0.78 µM
MIC [2]: 16 µg/mL (≈ 29.8 µM)
Compound: CC[C@H](C)[C@H]1C(=O)N(Cc2cc(Cl)cc(Cl)c2)C[C@@H]2N(C(=O)NCCCC(F)(F)F)CCC(=O)N12

EC50 [1]: 1.2 µM
MIC [2]: 16 µg/mL (≈ 32.1 µM)
Compound: CC(C)C[C@H]1C(=O)N(Cc2cccc3ccccc23)C[C@@H]2N(C(=O)NCc3ccccc3)CCC(=O)N21

EC50 [1]: 1.9 µM
MIC [2]: 2 µg/mL (≈ 4.2 µM)
Compound: CC[C@H](C)[C@H]1C(=O)N(Cc2cccc3ccccc23)C[C@@H]2N(C(=O)NCCC3CC3)CCC(=O)N12

EC50 [1]: 5.2 µM
MIC [2]: > 128 µg/mL
Compound: CC[C@H](C)[C@H]1C(=O)N(Cc2cccc3ccccc23)C[C@@H]2N(C(=O)NCCc3ccco3)CCC(=O)N12

EC50 [1]: 1.94 µM
MIC [2]: 4 µg/mL (≈ 6.69 µM)
Compound: CC[C@H](C)[C@H]1C(=O)N(Cc2ccc(Br)c3ccccc23)C[C@@H]2N(C(=O)NCCCC(F)(F)F)CCC(=O)N12

EC50 [1]: 1.3 µM
MIC [2]: 4 µg/mL (≈ 8.25 µM)
Compound: CC[C@H](C)[C@H]1C(=O)N(Cc2cccc3ccccc23)C[C@@H]2N(C(=O)NCCCCl)CCC(=O)N12

EC50 [1]: 5.2 µM
MIC [2]: 8 µg/mL (≈ 16.7 µM)
Compound: CCCC(C)NC(=O)N1CCC(=O)N2[C@@H]([C@@H](C)CC)C(=O)N(Cc3cccc4ccccc34)C[C@H]12 (stereo partly drawn)

EC50 [1]: 1.6 µM
MIC [2]: 2 µg/mL (≈ 3.96 µM)
Compound: CC(C)[C@H]1C(=O)N(Cc2cccc3ccccc23)C[C@@H]2N(C(=O)NCCCC(F)(F)F)CCC(=O)N12

EC50 [1]: 1.9 µM
MIC [2]: 2 µg/mL (≈ 4.18 µM)
Compound: CC[C@H](C)[C@H]1C(=O)N(Cc2cccc3ccccc23)C[C@@H]2N(C(=O)NCCC(C)C)CCC(=O)N12

EC50 [1]: 1.52 µM
MIC [2]: 0.25 µg/mL (≈ 0.469 µM)
Compound: CC[C@H](C)[C@H]1C(=O)N(Cc2ccc(C)c3ccccc23)C[C@@H]2N(C(=O)NCCCC(F)(F)F)CCC(=O)N12

EC50 [1]: 2.5 µM
MIC [2]: 16 µg/mL (≈ 35 µM)
Compound: C[C@H]1C(=O)N(Cc2cccc3ccccc23)C[C@@H]2N(C(=O)NCc3ccccc3)CCC(=O)N21

EC50 [1]: 1.6 µM
MIC [2]: 2 µg/mL (≈ 3.58 µM)
Compound: O=C1[C@H](CC2CCCCC2)N2C(=O)CCN(C(=O)NCCCC(F)(F)F)[C@H]2CN1Cc1cccc2ccccc12

EC50 [1]: 3.1 µM
MIC [2]: 8 µg/mL (≈ 15.5 µM)
Compound: CSCC[C@H]1C(=O)N(Cc2cccc3ccccc23)C[C@@H]2N(C(=O)NCc3ccccc3)CCC(=O)N21

EC50 [1]: 1.1 µM
MIC [2]: 4 µg/mL (≈ 8.02 µM)
Compound: CC[C@H](C)[C@H]1C(=O)N(Cc2cccc3ccccc23)C[C@@H]2N(C(=O)NCCCCCl)CCC(=O)N12

EC50 [1]: > 40 µM
MIC [2]: > 128 µg/mL
Compound: CC[C@H](C)[C@H]1C(=O)N(Cc2cccc3ccccc23)C[C@@H]2N(C(=O)NCCCCCCl)CCC(=O)N12

EC50 [1]: 1 µM
MIC [2]: 32 µg/mL (≈ 59.5 µM)
Compound: CC[C@H](C)[C@H]1C(=O)N(Cc2ccc(Cl)cc2Cl)C[C@@H]2N(C(=O)NCCCC(F)(F)F)CCC(=O)N12

EC50 [1]: 2.2 µM
MIC [2]: 16 µg/mL (≈ 35.5 µM)
Compound: CCCNC(=O)N1CCC(=O)N2[C@@H]([C@@H](C)CC)C(=O)N(Cc3cccc4ccccc34)C[C@H]12

EC50 [1]: 1.1 µM
MIC [2]: 16 µg/mL (≈ 29.2 µM)
Compound: O=C1[C@H](Cc2ccc(O)cc2)N2C(=O)CCN(C(=O)NCc3ccccc3)[C@H]2CN1Cc1cccc2ccccc12

EC50 [1]: 1.6 µM
MIC [2]: 2 µg/mL (≈ 4.3 µM)
Compound: CCCCNC(=O)N1CCC(=O)N2[C@@H]([C@@H](C)CC)C(=O)N(Cc3cccc4ccccc34)C[C@H]12
